Data from US20140099634A1, “USE OF PRE-MRNA SPLICING IN PLATELET CELLS FOR THE DIAGNOSIS OF DISEASE” (priority 2007, published 2014).

Columns and labels:
[1] = system: TF pre-mRNA splicing in platelets; assay: TF pre-mRNA splicing in platelets (PCR); format: cell-based, human; details: for pre-mRNA splicing events in platelets: commonly used medications in patients
Description: TF pre-mRNA splicing may be measured by any method known in the art, including, but not limited to, PCR using primers that target sequences in exon four (5′-[…]-3′; SEQ ID NO: 1) and five (5′-[…]-3′; SEQ ID NO: 2), and thus span intron four^3. Likewise, detection of full-length mature mRNA for human TF (mHTF) in platelets may be measured using any method known in the art, including, but not limited to, using primers targeting sequences in exon one (5′-[…]-3′; SEQ ID NO: 3) and exon six (5′-[…]-3′; SEQ ID NO: 4). In light of the disclosure herein, a person of ordinary skill in the art may select and use alternative primers based on the sequence of the gene/RNA^54. Primer design may be aided by the use of available computer programs, such as OLIGO™ (available from Hitachi Software), Primer3 (available online from the University of Massachusetts Medical School), GeneFisher (available online from the Universitat Bielefeld, Germany), or OligoAnalyzer (available from Integrated DNA Technologies, Inc.).
Platelets were isolated from each patient within 48 hours of admission to the ICU and TF mRNA expression patterns were characterized in each patient. In addition, clinical data for each patient including age and gender, admission diagnoses, APACHE II score, laboratory and microbiology results, and mortality were also collected. When feasible, platelets were also isolated from blood that was obtained on days three, five, and ten. The blood samples were processed immediately. Pre-mRNA splicing was also evaluated in platelets isolated from healthy volunteers (age 18-50) that were not taking medications. Platelets isolated from patients with sepsis and routine healthy control donors were processed in parallel.
Platelets from healthy subjects were left quiescent or activated with α-toxin (10 ng/ml; List Biological Laboratories Inc.) or lipopolysaccharide (LPS; 100 ng/ml; Sigma), toxins produced by gram-positive Staph. aureus and gram-negative E. Coli, respectively. Platelets were kept quiescent or activated in suspension with MRSA or E. coli at a bacteria to platelet ratio of 1:10. The bacteria were obtained from blood cultures from sepsis patients by ARUP, a national reference laboratory under standard conditions. For these studies, the bacteria were swiped from the culture plate, re-suspended, and the desired concentration was adjusted against a standard solution using a colorimeter (Vitek Colorimeter, bioMéreux, Inc.).

PKA = details: concentrations up to 1 μM; cited from earlier work
platelets [2] = assay: Plasma clot formation by activated platelets or their membranes; format: cell-based, human; details: platelets activated with thrombin for 2 hours, FIG. 5
platelets [3] = details: cited from earlier work
SRPK2 = SRPK2 (Homo sapiens, UniProt P78362); details: concentrations up to 1 μM; cited from earlier work
Sequence of SRPK2 (P78362 whole entry, species assumed): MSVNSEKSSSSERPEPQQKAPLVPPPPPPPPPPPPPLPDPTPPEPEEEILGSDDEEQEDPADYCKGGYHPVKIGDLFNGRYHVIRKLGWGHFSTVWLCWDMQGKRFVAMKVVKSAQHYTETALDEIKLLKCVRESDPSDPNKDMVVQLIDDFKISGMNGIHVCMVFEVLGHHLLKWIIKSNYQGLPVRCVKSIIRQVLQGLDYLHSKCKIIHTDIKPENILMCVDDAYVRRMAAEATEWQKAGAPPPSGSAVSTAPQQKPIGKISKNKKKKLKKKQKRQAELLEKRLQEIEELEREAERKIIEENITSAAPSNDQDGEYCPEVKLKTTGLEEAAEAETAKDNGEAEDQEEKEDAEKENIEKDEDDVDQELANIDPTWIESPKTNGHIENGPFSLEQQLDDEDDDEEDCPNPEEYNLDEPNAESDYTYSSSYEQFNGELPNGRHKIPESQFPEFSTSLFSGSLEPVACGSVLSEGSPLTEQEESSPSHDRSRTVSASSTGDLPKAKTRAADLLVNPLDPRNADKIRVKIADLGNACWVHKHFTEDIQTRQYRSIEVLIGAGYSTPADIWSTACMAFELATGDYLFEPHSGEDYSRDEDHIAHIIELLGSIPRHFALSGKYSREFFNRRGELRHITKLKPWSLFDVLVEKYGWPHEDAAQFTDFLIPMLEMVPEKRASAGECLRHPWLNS

PKC = details: concentrations up to 1 μM; cited from earlier work
SRPK1 = SRPK1 (Homo sapiens, UniProt Q96SB4); details: concentrations up to 1 μM; cited from earlier work
Sequence of SRPK1 (Q96SB4 whole entry, species assumed): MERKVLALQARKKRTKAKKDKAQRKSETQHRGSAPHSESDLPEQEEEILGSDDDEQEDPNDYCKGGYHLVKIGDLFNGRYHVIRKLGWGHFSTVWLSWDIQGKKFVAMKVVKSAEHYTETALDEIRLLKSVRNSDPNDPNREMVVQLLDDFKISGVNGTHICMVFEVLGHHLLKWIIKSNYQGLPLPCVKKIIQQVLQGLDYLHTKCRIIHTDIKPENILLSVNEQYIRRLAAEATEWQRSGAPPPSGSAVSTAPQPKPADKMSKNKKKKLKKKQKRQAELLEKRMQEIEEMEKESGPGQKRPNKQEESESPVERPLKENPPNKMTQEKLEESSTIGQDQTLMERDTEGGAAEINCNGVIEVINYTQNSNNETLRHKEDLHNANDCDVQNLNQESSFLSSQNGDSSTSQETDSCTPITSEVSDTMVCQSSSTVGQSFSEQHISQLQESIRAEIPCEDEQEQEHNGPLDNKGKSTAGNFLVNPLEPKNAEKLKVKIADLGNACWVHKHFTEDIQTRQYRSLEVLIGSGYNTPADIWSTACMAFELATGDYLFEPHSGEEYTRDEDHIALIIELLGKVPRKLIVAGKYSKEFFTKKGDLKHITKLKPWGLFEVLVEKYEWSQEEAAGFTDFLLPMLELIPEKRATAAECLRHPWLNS

CC(=O)CC(c1ccccc1)c1c(O)c2ccccc2oc1=O (stereo not drawn) [warfarin]
pre-mRNA splicing events in platelets [1]: do not affect

heparin
TF pre-mRNA splicing ([1]; platelets of septic patients who received heparin to prevent VTE): does not block

CCN1/C(=C/C(C)=O)Sc2ccc(OC)cc21 [Tg003, (Z)-1-(3-Ethyl-5-methoxy-2,3-dihydrobenzothiazol-2-ylidene)propan-2-one]
effect on PKA activity (PKA): does not affect
plasma clot formation (platelets [2]): reduces clot formation
platelet adhesion, spreading, and aggregation (platelets [3]): does not alter
effect on SRPK2 activity (SRPK2): does not affect
effect on PKC activity (PKC): does not affect
pre-mRNA splicing ([1]; platelets activated with thrombin, FIG. 5): blocks pre-mRNA splicing
effect on SRPK1 activity (SRPK1): does not affect

CC(=O)Oc1ccccc1C(=O)O [Aspirin]
pre-mRNA splicing events in platelets [1]: do not affect
signal-dependent TF pre-mRNA splicing ([1]; platelets of elderly subject taking aspirin 325 mg daily, thrombin 0.05 U/ml for 1 hour, FIG. 2): does not block

lipopolysaccharide [LPS]
induction of TF pre-mRNA splicing ([1]; platelets from healthy volunteers, 2 hours, FIGS. 11 and 12): induced TF pre-mRNA splicing
